Measured values taken from patent US20230391841A1, “MACROCYCLIC PEPTIDES” (Herantis Pharma OYJ, priority 2019, published 2023).
Bridge positions count the residues as written; N and C are the ends. Peptide text beside a SMILES is read from it.

Tests used:
[1] = system: 3D in vitro model of blood-brain barrier; assay: Permeation in a 3D in vitro model of blood-brain barrier; assay type: in vitro ADME, human endothelial cells, rat astrocytes and cortical neurons; conditions: 500 nM, 2 h
Method: Due to the interest of developing CDNF- and MANF-derived peptides for treatment of CNS diseases with peripheral route of administration, and the fact that macrocyclization can improve cell-penetration and distribution properties of peptides, the ability of the compounds to pass the blood-brain barrier was tested in an established in vitro model of the blood-brain barrier. For this purpose, macrocyclic and linear compounds were incubated at 500 nM for 2 h in a two-compartment in vitro blood-brain barrier model (n=4) followed by sample collection is and LC-MS/MS analysis.
Primary culture of astrocytes. Rat astrocytes were prepared from a E15 embryos. Briefly, pregnant female rats (Wistar, Janvier Labs) of 15 days of gestation were deeply anesthetized in a (CO2 chamber) and then killed by cervical dislocation. Fetuses were collected and immediately placed in ice-cold L15 Leibovitz medium with a 2% penicillin (10,000 U/mL) and streptomycin (10 mg/mL) solution (PS) and 1% bovine serum albumin (BSA). Full brains were treated for 20 min at 37° C. with a trypsin- EDTA solution at a final concentration of 0.05% trypsin and 0.02% EDTA. Dissociated cells were cultured in DMEM 10% fetal calf serum. Purified astrocytes were used at passage 4 (P4).
Culture of human endothelial cells. A vial of HBMEC (Primary Human Brain Microvascular Endothelial Cells, ACBRI 376) was used at a specific passage 8 (P8).
Primary culture of cortical neurons. Rat cortical neurons were cultured as described by Callizot et al., 2013 with modification. Briefly, pregnant female rats (Wistar, Janvier Labs) of […] were deeply anesthetized in a CO2 chamber and then killed by cervical io dislocation. Fetuses were collected and immediately placed in ice-cold L15 Leibovitz medium with a 2% penicillin (10,000 U/mL) and streptomycin (10 mg/mL) solution (PS) and 1% bovine serum albumin (BSA). Cortices were treated for 20 min at 37° C. with a trypsin-EDTA solution at a final concentration of 0.05% trypsin and 0.02% EDTA. The dissociation was stopped by addition of Dulbecco's modified Eagle's medium (DMEM) with 4.5 g/L of glucose, containing is DNAse I grade II (final concentration 0.5 mg/m L) and 10% fetal calf serum (FCS). Cells were mechanically dissociated by three forced passages through the tip of a 10-m1 pipette. Cells were then centrifuged at 515×g for 10 min at 4° C. The pellet resuspended in a defined culture medium consisting of Neurobasal medium with a 2% solution of B27 supplement, 2 mmol/L of L-glutamine, 2% of PS solution, 10 ng/mL of brain-derived neurotrophic factor (BDNF). Viable cells were counted in a Neubauer cytometer, using the trypan blue exclusion test. The cortical neurons were seeded in the bottom of well pre-coated with poly-L-lysine at a density of 255,000 per well in 24-well plate with insert and cultured at 37° C. in an air (95%)-CO2 (5%) incubator. The culture medium was changed every other day.
Co-Culture of endothelial cells, astrocytes and primary cortical neurons. The procedure was performed as previously published (Xue et al., 2013 with modifications, Callizot et al., 2017). Briefly, on day 0, purified astrocytes (P4) were rapidly thawed in a water bath at 37° C. The cells were immediately put in DMEM containing 10% of FCS. Cell suspension was centrifuged at 515×g for 5 min at 4° C. and the pellets were suspended in DMEM F12 containing 10% of FCS. Cells were seeded in the outer side of the insert membrane (PET, 1 μm) at the density of 45,000 cells per insert and cultured at 37° C. in an air (95%)-CO2 (5%) incubator. Thirty-six (36) hours after the astrocytes seeding, HBMEC (P8) were rapidly thawed in a water bath at 37° C. and immediately put in DMEM containing 10% of FCS. Cell suspension was centrifuged at 515×g for 5 min at 4° C. and the pellets were suspended in EGM-2 bullet kit containing 5% of FCS, 1% of PS solution, 1.4 μM of Hydrocortisone, 5 μg/mL of acid ascorbic, 1% of lipid mixture, 10 mM of HEPES, 1 ng/mL of bFGF. […]

[2] = In vivo pharmacokinetics after intravenous administration to rats; design: species or system male Sprague-Dawley rats; conditions: for AUC(0-inf) / MRT / Vd / half-life / clearance: rat, 5 mg/kg intravenous bolus, male Sprague-Dawley rats; for AUC(0-inf) / MRT / Vd / half-life: in vivo; for clearance: plasma, read-out: CI
Method: The clearance and elimination of peptides can be mediated by multiple processes in vivo, including metabolism and renal elimination.
Test compounds were intravenously (i.v.) administered to male Spraque-Dawley rats (about is six weeks old, n=3 per compound) at 5 mg/kg. Blood samples were collected from jugular vein through implanted in-dwelling catheters (250 pl blood) into labelled polypropylene tubes containing anticoagulant (heparin) at 2 min, 5 min,15 min, 30 min, 1 h, 2 h and 4 h after compound administration and held on wet ice for a maximum of 30 minutes. The blood samples were centrifuged for plasma separation (4 °C, 21100 G, 5 min). Tolbutamide 500ng/ml with 10% TFA in acetonitrile or in MeCN was used as an internal standard solution.
The standard samples were prepared into rat plasma by spiking the matrix into concentrations 2-10 000 ng/ml of the analyte, respectively, and otherwise treated as the samples. To 50 pl aliquots of sample plasma was added 200 pl of internal standard. Samples were mixed (150 rpm, 15 min) and centrifugated (3000 rpm, 15min). The analytical method was optimized for reaction monitoring chromatographic (peak shape & retention) shifts and mass spectrometric properties (ionization efficiency, MS/MS detection). Supernatants were analyzed by UHPLC-TOF mass spectrometry using electrospray ionization.

Question: Which “ability to pass through the in vitro blood-brain barrier as compared to linear counterpart” value (“ability … compared to linear counterpart” for short) [1] does the source give for CC[C@H](C)[C@@H]1NC(=O)[C@H](CCC(N)=O)NC(=O)[C@H](CCCCN)NC(=O)[C@H](CC(C)C)NC(=O)[C@H](CCC(=O)O)NC(=O)[C@H](C)NC(=O)[C@H](C(C)C)NC(=O)[C@H](CCCNC(=N)N)NC(=O)[C@H](CCSC)NC(=O)[C@H](CCCCN)NC(=O)[C@H](CCC(=O)O)NC(=O)[C@H](C)NC(=O)[C@@H]2CSSC[C@H](NC(=O)[C@H](CCC(=O)O)NC(=O)[C@H](CCC(=O)O)NC(=O)CNC(=O)[C@H](Cc3c[nH]c4ccccc34)NC(=O)[C@H](CO)NC(=O)[C@H](Cc3c[nH]cn3)NC(=O)[C@H](CC(C)C)NC1=O)C(=O)N[C@@H](CCCNC(=N)N)C(=O)N[C@@H](C)C(=O)N2 [Compound 6] (cyclo(ACAEKMRVAELKQILHSWGEECR); disulfide 2-22) here?
Answer: Its value is “improved ability to pass”.

Question: Which “ability … compared to linear counterpart” value [1] does the source give for CC[C@H](C)[C@@H]1NC(=O)[C@H](CCCCN)NC(=O)[C@H](CCCCN)NC(=O)[C@H](CC(C)C)NC(=O)[C@H](CCC(=O)O)NC(=O)[C@H](CCCCN)NC(=O)[C@H](C(C)C)NC(=O)[C@H](CCCNC(=N)N)NC(=O)[C@H](CC(C)C)NC(=O)[C@H](CCCCN)NC(=O)[C@H](CCC(=O)O)NC(=O)[C@H](C)NC(=O)[C@@H]2CSSC[C@H](NC(=O)[C@H]([C@@H](C)O)NC(=O)[C@H](CCC(=O)O)NC(=O)CNC(=O)[C@H](Cc3c[nH]c4ccccc34)NC(=O)[C@H](CC(=O)O)NC(=O)[C@H](CC(=O)O)NC(=O)[C@H](CC(C)C)NC1=O)C(=O)N[C@@H](CCCCN)C(=O)NCC(=O)N2 [Compound 8] (cyclo(AEKLRVKELKKILDDWGETCKGC); disulfide 20-23) here?
Answer: Its value is “improved ability to pass”.

Question: Which “ability … compared to linear counterpart” value [1] does the source give for C[C@@H]1NC(=O)[C@@H]2CSSC[C@H](NC(=O)[C@H](CCC(=O)O)NC(=O)[C@H](CCC(=O)O)NC(=O)CNC(=O)[C@H](Cc3c[nH]c4ccccc34)NC(=O)[C@H]([C@@H](C)O)NC(=O)[C@H](CCCCN)NC(=O)[C@H](CCC(=O)O)NC1=O)C(=O)N[C@@H](CCCNC(=N)N)C(=O)N[C@@H](C)C(=O)N2 [Compound 12, WGEECRACAEKT] (cyclo(ACAEKTWGEECR); disulfide 2-11) here?
Answer: The value was “improved ability to pass”.

Question: Which AUC(0-inf) [2] does the source give for CC[C@H](C)[C@@H]1NC(=O)[C@H](CO)NC(=O)[C@H](CCCCN)NC(=O)[C@H](CCC(=O)O)NC(=O)[C@H](C)NC(=O)[C@@H]2CSSC[C@H](NC(=O)[C@H]([C@@H](C)O)NC(=O)[C@H](CCC(=O)O)NC(=O)CNC(=O)[C@H](Cc3c[nH]c4ccccc34)NC(=O)[C@H](CC(=O)O)NC(=O)[C@H](CC(=O)O)NC(=O)[C@H](CC(C)C)NC1=O)C(=O)N[C@@H](CCCCN)C(=O)NCC(=O)N2 [Compound 10, KSILDDWGETCKGCAE] (cyclo(AEKSILDDWGETCKGC); disulfide 13-16) here?
Answer: The AUC(0-inf) was 2140 ng·h/mL.

Question: And the MRT [2]?
Answer: Its MRT is 1.2 min.

Question: What about the Vd [2] of the same compound?
Answer: The Vd was 0.05 L/kg.

Question: And the half-life [2]?
Answer: Its half-life is 3.6 min.

Question: And the clearance [2]?
Answer: Its clearance is 39.9 mL/min/kg.

Question: With C[C@@H]1NC(=O)CNC(=O)[C@H](CCCNC(=N)N)NC(=O)[C@@H]2CSSC[C@H](NC1=O)C(=O)N[C@@H](C)C(=O)N[C@@H](CCC(=O)O)C(=O)N[C@@H](CCCCN)C(=O)N[C@@H]([C@@H](C)O)C(=O)N[C@@H](Cc1c[nH]c3ccccc13)C(=O)NCC(=O)N[C@@H](CCC(=O)O)C(=O)N[C@@H](CCC(=O)O)C(=O)N2 [Compound 24, WGEECRGACAEKT] (cyclo(ACAEKTWGEECRG); disulfide 2-11) as the compound, how does the “ability … compared to linear counterpart” value [1] read?
Answer: The value was “improved ability to pass”.

Question: Which “ability … compared to linear counterpart” value [1] does the source give for C[C@@H]1NC(=O)[C@@H]2CSSC[C@H](NC(=O)[C@H]([C@@H](C)O)NC(=O)[C@H](CCC(=O)O)NC(=O)CNC(=O)[C@H](Cc3c[nH]c4ccccc34)NC(=O)[C@H](CO)NC(=O)[C@H](CCCCN)NC(=O)[C@H](CCC(=O)O)NC1=O)C(=O)N[C@@H](CCCCN)C(=O)NCC(=O)N2 [Compound 14, WGETCKGCAEKS] (cyclo(AEKSWGETCKGC); disulfide 9-12) here?
Answer: Its value is “improved ability to pass”.

Question: And the “plasma half-life, volume of distribution and mean residence time” value ([2]; intravenous administration to rats)?
Answer: The value was “improved”.

Question: And the blood retention behavior ([2]; intravenous, 5 mg/kg, rats)?
Answer: The blood retention behavior was “improved blood retention behavior”.

Question: And the “time detected in the plasma after administration” value ([2]; intravenous, 5 mg/kg, rats)?
Answer: The value was ≥ 2 h.

Question: And the AUC(0-inf) [2]?
Answer: The AUC(0-inf) was 4970 ng·h/mL.

Question: What about the MRT [2] of the same compound?
Answer: Its MRT is 7.05 min.

Question: What about the Vd [2] of the same compound?
Answer: Its Vd is 0.12 L/kg.

Question: And the half-life [2]?
Answer: Its half-life is 15.8 min.

Question: And the clearance [2]?
Answer: The clearance was 16.8 mL/min/kg.

Question: Which results are given for CC[C@H](C)[C@@H]1NC(=O)[C@H](CCC(N)=O)NC(=O)[C@H](CCCCN)NC(=O)[C@H](CC(C)C)NC(=O)[C@H](CCC(=O)O)NC(=O)[C@H](C)NC(=O)[C@H](C(C)C)NC(=O)[C@H](CCCNC(=N)N)NC(=O)[C@H](CCSC)NC(=O)[C@H](CCCCN)NC(=O)[C@H](CCCNC(=N)N)NC(=O)[C@H](CC(C)C)NC(=O)[C@H](CC(=O)O)NC(=O)[C@H](C(C)C)NC(=O)[C@H](CCC(=O)O)NC(=O)[C@H](C)NC(=O)[C@@H]2CSSC[C@H](NC(=O)[C@H](CCC(=O)O)NC(=O)[C@H](CCC(=O)O)NC(=O)CNC(=O)[C@H](Cc3c[nH]c4ccccc34)NC(=O)[C@H](CO)NC(=O)[C@H](Cc3c[nH]cn3)NC(=O)[C@H](CC(C)C)NC1=O)C(=O)N[C@@H](CCCNC(=N)N)C(=O)N[C@@H](C)C(=O)N2 [Compound 2] (cyclo(ACAEVDLRKMRVAELKQILHSWGEECR); disulfide 2-26)?
Answer: ability to pass through the in vitro blood-brain barrier as compared to linear counterpart [1]: improved ability to pass; AUC(0-inf) [2]: 4440 ng·h/mL; MRT [2]: 1.01 min; Vd [2]: 0.02 L/kg; half-life [2]: 3.78 min; clearance [2]: 20.6 mL/min/kg

Question: Which “ability … compared to linear counterpart” value [1] does the source give for C[C@@H]1NC(=O)[C@@H]2CSSC[C@H](NC(=O)[C@H]([C@@H](C)O)NC(=O)[C@H](CCC(=O)O)NC(=O)CNC(=O)[C@H](Cc3c[nH]c4ccccc34)NC(=O)[C@H](CO)NC(=O)[C@H](CCCCN)NC(=O)[C@H](CCC(=O)O)NC1=O)C(=O)N[C@@H](CCCCN)C(=O)NCC(=O)NCC(=O)N2 [Compound 26, WGETCKGGCAEKS] (cyclo(AEKSWGETCKGGC); disulfide 9-13) here?
Answer: The value was “improved ability to pass”.
